Here are results for five compounds from ChEMBL document CHEMBL5226365, “Xylochemical Synthesis and Biological Evaluation of the Orchidaceous Natural Products Isoarundinin I, Bleochrin F, Blestanol K, and Pleionol” (J Nat Prod, 2023).

Series [1] in a line: Cytotoxicity against human PBMC assessed as cell viability at 100 uM incubated for 72 hrs by resazurin assay. It counts as toxicity, cell-based.
The next series relates to ADR5000 cell line. Briefly: Cytotoxicity against human CEM/ADR5000 cells overexpressing P-gp assessed as inhibition of cell growth incubated for 72 hrs by resazurin assay. It counts as functional, cell-based. The note with it: ADR5000, 72 h. On the technique in general: Alamar Blue is a resazurin reagent that responds to reducing activity.
Another series concerns CCRF-CEM. Kind of series: Cytotoxicity against human CCRF-CEM cells assessed as inhibition of cell growth incubated for 72 hrs by resazurin assay. Format: functional, cell-based.
A short description of series [2]: Resistance index, ratio of IC50 for cytotoxicity against human CEM/ADR5000 cells overexpressing P-gp to IC50 for cytotoxicity against human CCRF-CEM cells. Format: functional.

What is called IC50 is the concentration at which inhibition is half-maximal. Take `COc1cc(O)cc(CCc2cccc(O)c2)c1Cc1ccc(O)cc1`: in series [1], the Activity result is “Non-Toxic”. In addition, the figures for the IC50 in the series on ADR5000 cell line and in the series with CCRF-CEM were 60.4 µM and 43.4 µM, respectively. Besides, the “Ratio IC50” value in series [2] turned out to be 1.4.
On to `COc1cc(C2c3ccc(O)cc3CCc3cc(O)cc(OC)c32)ccc1O` (stereo unspecified), for which the Activity entry in series [1] is “Non-Toxic”. Besides, the half-inhibitory concentration (IC50) was 17.2 µM in the series with ADR5000 cell line and 18.7 µM in the series on CCRF-CEM. The “Ratio IC50” value in series [2] was found to be 0.9.
On to `COc1cc(O)c(Cc2ccc(O)cc2)c2c1C(c1ccc(O)cc1)c1ccc(O)cc1CC2` (racemic), for which the Activity entry in series [1] is on record as “Non-Toxic”. The figures for the IC50 in the series with ADR5000 cell line and in the series on CCRF-CEM were 47.8 µM and 6.7 µM, respectively. Moreover, the “Ratio IC50” value in series [2] came out at 7.1.
For the compound `COc1cc(O)cc2c1C(c1ccc(O)cc1)c1ccc(O)cc1CC2` (racemic), in series [1], the Activity entry is “Non-Toxic”. The IC50 with ADR5000 cell line was above 100 µM; in the series on CCRF-CEM it was 45.7 µM.
Turning to `COc1cccc2c1C(=O)c1c(O)c3c(c(O)c1C2=O)C[C@@](O)(C(=O)CO)C[C@@H]3O[C@H]1C[C@H](N)[C@H](O)[C@H](C)O1` [DOXORUBICIN], the “Ratio IC50” value in series [2] is on record as above 1000.
